Results as given in ChEMBL document CHEMBL1201862, “PubChem BioAssay data set” (2004).
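Assay format: 96-well plates, 48-hour exposure. Abbreviation: GI50, concentration required for 50% inhibition of growth.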 The source made the active and inactive calls. No stated cut-off is given here; in the data, active = GI50 up to about 1.1 µM and inactive = higher.

Key:
Test in all cases: growth of human tumour cells (NCI), 48 h
[1] = test system: 786-0
[2] = test system: A498
[3] = test system: A549
[4] = test system: ACHN
[5] = test system: BT-549
[6] = test system: CAKI-1
[7] = test system: CCRF-CEM
[8] = test system: COLO 205
[9] = test system: DU-145
[10] = test system: EKVX
[11] = test system: HCC 2998
[12] = test system: HCT-116
[13] = test system: HCT-15
[14] = test system: HL-60
[15] = test system: HOP-62
[16] = test system: HOP-92
[17] = test system: HT-29
[18] = test system: Hs-578T
[19] = test system: IGROV-1
[20] = test system: K562
[21] = test system: KM12
[22] = test system: LOX IMVI
[23] = test system: M14
[24] = test system: MCF7
[25] = test system: MDA-MB-231
[26] = test system: MDA-MB-435
[27] = test system: MDA-N
[28] = test system: MOLT-4
[29] = test system: Malme-3M
[30] = test system: NCI-H226
[31] = test system: NCI-H23
[32] = test system: NCI-H460
[33] = test system: NCI-H522
[34] = test system: NCI/ADR-RES
[35] = test system: OVCAR-3
[36] = test system: OVCAR-4
[37] = test system: OVCAR-5
[38] = test system: OVCAR-8
[39] = test system: PC-3
[40] = test system: RPMI-8226
[41] = test system: RXF 393
[42] = test system: SF-268
[43] = test system: SF-295
[44] = test system: SF-539
[45] = test system: SK-MEL-28
[46] = test system: SK-MEL-2
[47] = test system: SK-MEL-5
[48] = test system: SK-OV-3
[49] = test system: SN12C
[50] = test system: SNB-19
[51] = test system: SNB-75
[52] = test system: SR
[53] = test system: T47D
[54] = test system: TK-10
[55] = test system: U-251
[56] = test system: UACC-257
[57] = test system: UACC-62
[58] = test system: UO-31
[59] = test system: SW-620

## CCOC(=O)c1cc(-c2ccc(OC)c(OC)c2)c[nH]1
[1]
  GI50: > 10 µM (inactive)
[2]
  GI50: > 10 µM (inactive)
[3]
  GI50: > 10 µM (inactive)
[4]
  GI50: > 10 µM (inactive)
[5]
  GI50: > 10 µM (inactive)
[6]
  GI50: > 10 µM (inactive)
[7]
  GI50: > 10 µM (inactive)
[8]
  GI50: > 10 µM (inactive)
[9]
  GI50: > 10 µM (inactive)
[10]
  GI50: > 10 µM (inactive)
[11]
  GI50: > 10 µM (inactive)
[12]
  GI50: > 10 µM (inactive)
[13]
  GI50: > 10 µM
[14]
  GI50: > 10 µM (inactive)
[15]
  GI50: > 10 µM (inactive)
[16]
  GI50: > 10 µM (inactive)
[17]
  GI50: > 10 µM (inactive)
[18]
  GI50: > 10 µM (inactive)
[19]
  GI50: > 10 µM (inactive)
[20]
  GI50: > 10 µM (inactive)
[21]
  GI50: > 10 µM (inactive)
[22]
  GI50: > 10 µM (inactive)
[23]
  GI50: > 10 µM (inactive)
[24]
  GI50: > 10 µM (inactive)
[25]
  GI50: > 10 µM (inactive)
[26]
  GI50: > 10 µM (inactive)
[27]
  GI50: > 10 µM (inactive)
[28]
  GI50: > 10 µM (inactive)
[29]
  GI50: > 10 µM (inactive)
[30]
  GI50: > 10 µM (inactive)
[31]
  GI50: > 10 µM (inactive)
[32]
  GI50: > 10 µM (inactive)
[33]
  GI50: > 10 µM (inactive)
[34]
  GI50: > 10 µM (inactive)
[35]
  GI50: > 10 µM (inactive)
[36]
  GI50: > 10 µM (inactive)
[37]
  GI50: > 10 µM (inactive)
[38]
  GI50: > 10 µM (inactive)
[39]
  GI50: > 10 µM (inactive)
[40]
  GI50: > 10 µM (inactive)
[41]
  GI50: > 10 µM (inactive)
[42]
  GI50: > 10 µM (inactive)
[43]
  GI50: > 10 µM (inactive)
[44]
  GI50: > 10 µM (inactive)
[45]
  GI50: > 10 µM (inactive)
[46]
  GI50: > 10 µM (inactive)
[47]
  GI50: > 10 µM (inactive)
[48]
  GI50: > 10 µM (inactive)
[49]
  GI50: > 10 µM (inactive)
[50]
  GI50: > 10 µM (inactive)
[51]
  GI50: 5.08 µM (inactive)
[52]
  GI50: > 10 µM (inactive)
[53]
  GI50: > 10 µM (inactive)
[54]
  GI50: > 10 µM (inactive)
[55]
  GI50: > 10 µM (inactive)
[56]
  GI50: > 10 µM (inactive)
[57]
  GI50: > 10 µM (inactive)
[58]
  GI50: > 10 µM (inactive)

## COC(=O)CCC(C)C1CCC2C3CCC4CC5CCC4(C)C3(O5)C(Br)C(Br)C12C (stereo unspecified)
[1]
  GI50: > 100 µM (inactive)
[2]
  GI50: > 100 µM (inactive)
[3]
  GI50: > 100 µM (inactive)
[4]
  GI50: > 100 µM (inactive)
[5]
  GI50: > 100 µM (inactive)
[6]
  GI50: > 100 µM (inactive)
[8]
  GI50: > 100 µM (inactive)
[9]
  GI50: > 100 µM (inactive)
[10]
  GI50: > 100 µM (inactive)
[11]
  GI50: > 100 µM (inactive)
[12]
  GI50: 78.9 µM (inactive)
[13]
  GI50: > 100 µM
[14]
  GI50: 2.55 µM (inactive)
[15]
  GI50: > 100 µM (inactive)
[16]
  GI50: > 100 µM (inactive)
[17]
  GI50: 56.2 µM (inactive)
[18]
  GI50: > 100 µM (inactive)
[19]
  GI50: > 100 µM (inactive)
[20]
  GI50: > 100 µM (inactive)
[21]
  GI50: > 100 µM (inactive)
[22]
  GI50: > 100 µM (inactive)
[23]
  GI50: > 100 µM (inactive)
[24]
  GI50: > 100 µM (inactive)
[25]
  GI50: > 100 µM (inactive)
[26]
  GI50: > 100 µM (inactive)
[27]
  GI50: > 100 µM (inactive)
[28]
  GI50: > 100 µM (inactive)
[29]
  GI50: > 100 µM (inactive)
[30]
  GI50: 45.4 µM (inactive)
[31]
  GI50: > 100 µM (inactive)
[32]
  GI50: > 100 µM (inactive)
[33]
  GI50: 48.2 µM (inactive)
[34]
  GI50: > 100 µM (inactive)
[35]
  GI50: > 100 µM (inactive)
[36]
  GI50: > 100 µM (inactive)
[37]
  GI50: > 100 µM (inactive)
[38]
  GI50: > 100 µM (inactive)
[39]
  GI50: > 100 µM (inactive)
[40]
  GI50: 67.6 µM (inactive)
[41]
  GI50: > 100 µM (inactive)
[42]
  GI50: > 100 µM (inactive)
[43]
  GI50: > 100 µM (inactive)
[44]
  GI50: 85.1 µM (inactive)
[45]
  GI50: > 100 µM (inactive)
[46]
  GI50: > 100 µM (inactive)
[47]
  GI50: 72.9 µM (inactive)
[48]
  GI50: > 100 µM (inactive)
[49]
  GI50: > 100 µM (inactive)
[50]
  GI50: > 100 µM (inactive)
[51]
  GI50: > 100 µM (inactive)
[52]
  GI50: > 100 µM (inactive)
[59]
  GI50: > 100 µM (inactive)
[53]
  GI50: 61.9 µM (inactive)
[54]
  GI50: > 100 µM (inactive)
[55]
  GI50: > 100 µM (inactive)
[56]
  GI50: > 100 µM (inactive)
[57]
  GI50: > 100 µM (inactive)
[58]
  GI50: > 100 µM (inactive)
